We go through one molecule from patent EP3064205A1, “Therapeutic use of isomeric forms of 2-(4-chlorophenyl)quinolin-4-yl)(piperidin-2-yl)methanol” (Glionova AB, priority 2015, dated 2016).

For assay [1], the system named is Panc-1 cells. Kind of assay: APH cell viability assay, 2D culture. Format: cell-based, human. The following applies: Panc-1, 2D culture, 30 µM. The source says:
(§1) The following well-characterized human pancreatic ductal adenocarcinoma cell lines (ATCC) were used: HPAF II, BxPC-3, MIA-PaCa2 and Panc-1. These cell lines were generated from patient-derived tumors and are widely used model system to study pancreatic cancer (HPAF II: Kim YW, et al. Pancreas 4: 353-362, 1989; BxPC-3: Tan MH, et al. Cancer Invest. 4: 15-23, 1986; MIA-PaCa2: Yunis AA, et al. Int. J. Cancer 19: 128-135, 1977; Pacn-1: Lieber M, et al. Int. J. Cancer 15: 741-747, 1975).
For 2D culture, cells were seeded on flat bottom 96 well plates (Costar) at a concentration of 2500 cells/well in 100 µl phenol red-free RPMI-F12 medium containing 10% FCS. For 3D culture, cells were seeded according to the description for spheroid preparation in phenol-free medium. On day 4 Vacquinol-1 RS (S1) was added at the indicated final concentrations in an extra volume of 10 µl/well and in 8 replicates for each time point. On day 7, an APH assay (See below) was performed. The viability rate was calculated as a percentage of the untreated cells. All data were expressed as the mean ± SD of at least 8 replicates. To confirm the reliability of the APH assay on 2D culture, cell viability was measured using CellTiter-Glo assay (Promega).
The APH assay, which measures the activity of acidic phosphatase in the cells, was optimized for 3D cultures as follows. Only 70µl of medium was removed in order not to suck up the spheres. Then 60µl of PBS was added per well and 100µl of APH buffer (0.1 M sodium acetate pH 5.2 and 0.1 % triton X-100) containing the substrate (2mg/ml p-nitrophenyl phosphate, final pH 4.8 from Thermo Scientific). After 2 hours incubation for the 2D culture and 5 hours for the 3D culture, 10µl of 1 M NaOH was added to stop the APH activity. Absorbance at 405nm was measured within 10 minutes using a FluoStar OPTIMA plate reader (BMG Labtech). Viability rate was calculated as per cent of CTR untreated cells. All data are expressed as the mean ± SD of at least 8 replicates.

Assay [2] has as its system Panc-1 cells. Nature of the assay: APH cell viability assay, 3D culture. It counts as cell-based, human.
Source text: as §1
Panc-1, HPAF II, KPC pancreatic adenocarcinoma cell lines were trypsin-treated and counted using the Casy Cell Counter according to the manufacturer's recommendations (GmbH). Subsequently, they were seeded onto round bottom non-tissue culture treated 96 well-plates (Falcon, BD NJ, USA) at a concentration of 2500 cells/well in 100 µl DMEM-F12 or phenol red-free DMEM-F12 medium, containing 10% FCS and supplemented with 20% methyl cellulose stock solution. For preparation of methylcellulose stock solution, 6 grams of methylcellulose powder (M0512, Sigma-Aldrich) was autoclaved in a 500 ml flask containing a magnetic stirrer (the methylcellulose powder is resistant to this procedure). The autoclaved methylcellulose was dissolved in preheated 250 ml basal medium (60°C) for 20 min (using the magnetic stirrer). Thereafter, 250 ml medium (room temperature) containing double amount of FCS (20%) was added to a final volume of 500 ml and the whole solution mixed overnight at 4°C. The final stock solution was aliquoted and cleared by centrifugation (5000g, 2 h, room temperature). Only the clear highly viscous supernatant was used for the spheroid assay (about 90-95% of the stock solution). For spheroid generation, 20% of the stock solution and 80% culture medium corresponding to final 0.24% methylcellulose was used. Spheroids were grown under standard culture conditions (5% CO2, at 37°C).
For 2D culture, cells were seeded on flat bottom 96 well plates (Costar) at a concentration of 2500 cells/well in 100 µl phenol red-free RPMI-F12 medium containing 10% FCS. For 3D culture, cells were seeded according to the description for spheroid preparation in phenol-free medium. […] The viability rate was calculated as a percentage of the untreated cells. All data were expressed as the mean ± SD of at least 8 replicates. To confirm the reliability of the APH assay on 2D culture, cell viability was measured using CellTiter-Glo assay (Promega).
The APH assay, which measures the activity of acidic phosphatase in the cells, was optimized for 3D cultures as follows. […] Absorbance at 405nm was measured within 10 minutes using a FluoStar OPTIMA plate reader (BMG Labtech). Viability rate was calculated as per cent of CTR untreated cells. All data are expressed as the mean ± SD of at least 8 replicates.

With `O[C@H](c1cc(-c2ccc(Cl)cc2)nc2ccccc12)[C@@H]1CCCCN1` [S1, (R)-(2-(4-chlorophenyl)quinolin-4-yl)((S)-piperidin-2-yl)methanol], the “decrease in cell viability” value was 43% in the assay on Panc-1 cells [1] (24h); 63% in the assay with Panc-1 cells [1] (48h); 70% with Panc-1 cells [1] (72h); 55% in the assay with Panc-1 cells [2] (Panc-1, 3D culture, 30 µM, 48h); 64% with Panc-1 cells [2] (Panc-1, 3D culture, 30 µM, 72h). In the assay with Panc-1 cells [2] (Panc-1, 30 µM (data not shown)), the vacuole formation result is recorded as “vacuoles were formed”. In the assay on Panc-1 cells [2] (Panc-1, 3D culture, 30 µM, 24h), the “effect on cell viability” value is reported as “did not affect cells”.
